Data taken from patent US20250376464A1 (Trawsfynydd Therapeutics, Inc., priority 2022, published 2025).

Molecular target: SARS-CoV2-Mpro (Severe acute respiratory syndrome coronavirus 2 (2019-nCoV) (SARS-CoV-2), UniProt P0DTD1)
Assay: Primary assay: SARS-CoV2-Mpro enzymatic activity inhibition
Assay type: biochemical
Conditions: enzyme preincubated with compound for 20 min; slope of linear portion of signal
Protocol: Example A. Primary Assay Used to Determine Potency of SARS-CoV2-Mpro Enzymatic Activity Inhibition
• (1) Deliver 2× Enzyme • (2) Deliver buffer into No Enzyme wells • (3) Deliver compounds in 100% DMSO by using Acoustic technology (Echo550; nanoliter range) • (4) Incubate for 20 min • (5) Deliver 2× Substrate to initiate the reaction • (6) Spin & shake, start measuring in EnVision at rt; 5 min interval for 25 (2 hours) • (7) Analyze data by taking slope (signal/time) of linear portion of measurement • (8) Slope is calculated by using Excel, and curve fits are performed using Prism software.
The % inhibition was then used to calculate the IC50 values. The IC50 values are shown in Table A, wherein “A” corresponds to IC50<10.0 nm, “B” corresponds to 10.0 nm≤IC50<50.0 nm, “C” corresponds to 50.0 nm≤IC50<100.0 nm, “D” corresponds to 100.0 nm≤IC50<500.0 nm, and “E” corresponds to 500.0 nm≤IC50<1000.0 nm, and “F” corresponds to 1000.0 nm≤IC50.

Structure (SMILES) | IC50 [nM]
CC(C)(C)[C@H](NC(=O)C(F)(F)F)C(=O)N1C[C@H]2C([C@H]1C(=O)N[C@H](C#N)C[C@]1(C)C(=O)Nc3ccccc31)C2(C)C (stereo in doubt) [Compound 239, (1S,2S,5S)-N-[1-cyano-2-(3-methyl-2-oxo-indolin-3-yl)ethyl]-3-[(2S)-3,3-dimethyl-2-[(2,2,2-trifluoroacetyl)amino]butanoyl]-6,6-dimethyl-3-azabicyclo[3.1.0]hexane-2-carboxamide] | ≥ 1000
CC(C)(C)[C@H](NS(C)(=O)=O)C(=O)N1C[C@H]2C([C@H]1C(=O)N[C@H](C#N)C[C@@H]1C(=O)Nc3ccccc31)C2(C)C (stereo in doubt) [Compound 238, (1S,2S,5S)-N-[(1S)-1-cyano-2-(2-oxoindolin-3-yl)ethyl]-3-[(2S)-2-(methanesulfonamido)-3,3-dimethyl-butanoyl]-6,6-dimethyl-3-azabicyclo[3.1.0]hexane-2-carboxamide] | < 10
CC(C)(C)[C@H](NC(=O)C(F)(F)F)C(=O)N1C[C@H]2C([C@H]1C(=O)N[C@H](C#N)CC1C(=O)Nc3ccc(Br)cc31)C2(C)C (stereo in doubt) [Compound 232, (1S,2S,5S)-N-[(1S)-2-(5-bromo-2-oxo-indolin-3-yl)-1-cyano-ethyl]-3-[(2S)-3,3-dimethyl-2-[(2,2,2-trifluoroacetyl)amino]butanoyl]-6,6-dimethyl-3-azabicyclo[3.1.0]hexane-2-carboxamide] | 10 to 50
Cc1ccc2c(c1)C(C[C@@H](C#N)NC(=O)[C@@H]1[C@H]3[C@H](CN1C(=O)[C@@H](NC(=O)C(F)(F)F)C(C)(C)C)C3(C)C)C(=O)N2 (stereo partly drawn) [Compound 220, (1S,2S,5S)-N-[(1S)-1-cyano-2-(5-methyl-2-oxo-indolin-3-yl)ethyl]-3-[(2S)-3,3-dimethyl-2-[(2,2,2-trifluoroacetyl)amino]butanoyl]-6,6-dimethyl-3-azabicyclo[3.1.0]hexane-2-carboxamide] | 10 to 50
Cc1cccc2c1C(C[C@@H](C#N)NC(=O)[C@@H]1C3[C@H](CN1C(=O)[C@@H](NC(=O)C(F)(F)F)C(C)(C)C)C3(C)C)C(=O)N2 (stereo in doubt) [Compound 234, (1S,2S,5S)-N-[(1S)-1-cyano-2-(4-methyl-2-oxo-indolin-3-yl)ethyl]-3-[(2S)-3,3-dimethyl-2-[(2,2,2-trifluoroacetyl)amino]butanoyl]-6,6-dimethyl-3-azabicyclo[3.1.0]hexane-2-carboxamide] | 500 to 1000
CC(C)(C)[C@H](NC(=O)C(F)(F)F)C(=O)N1C[C@H]2C([C@H]1C(=O)N[C@H](C#N)CC1C(=O)Nc3ccccc31)C2(C)C (stereo in doubt) [Compound 217, (1R,2S,5S)—N-((1S)-1-Cyano-2-(2-oxoindolin-3-yl)ethyl)-3-((S)-3,3-dimethyl-2-(2,2,2-trifluoroacetamido)butanoyl)-6,6-dimethyl-3-azabicyclo[3.1.0]hexane-2-carboxamide] | < 10
COC(=O)N[C@H](C(=O)N1C[C@H]2C([C@H]1C(=O)N[C@H](C#N)CC1C(=O)Nc3ccccc31)C2(C)C)C(C)(C)C (stereo in doubt) [Compound 243, Methyl N-[(1S)-1-[(1S)-2-[[(1S)-1-cyano-2-(2-oxoindolin-3-yl)ethyl]carbamoyl]-6,6-dimethyl-3-azabicyclo[3.1.0]hexane-3-carbonyl]-2,2-dimethyl-propyl]carbamate] | < 10
CC(C)(C)[C@H](NS(=O)(=O)CC(F)(F)F)C(=O)N1C[C@H]2C([C@H]1C(=O)N[C@H](C#N)C[C@@H]1CCNC1=O)C2(C)C (stereo in doubt) [Compound 209, (1R,2S,5S)—N-[(1S)-1-cyano-2-[(3S)-2-oxopyrrolidin-3-yl]ethyl]-3-[(2S)-3,3-dimethyl-2-(2,2,2-trifluoroethylsulfonylamino)butanoyl]-6,6-dimethyl-3-azabicyclo[3.1.0]hexane-2-carboxamide] | 10 to 50
CCCN(C(=O)[C@@H]1[C@@H]2[C@H](CN1C(=O)[C@@H](NC(=O)C(F)(F)F)C(C)(C)C)C2(C)C)[C@H](C#N)C[C@@H]1C(=O)Nc2ccccc21 [Compound 248, (1R,2S,5S)-N-[(1S)-1-cyano-2-(2-oxoindolin-3-yl)ethyl]-3-[(2S)-3,3-dimethyl-2-[(2,2,2-trifluoroacetyl)amino]butanoyl]-6,6-dimethyl-N-propyl-3-azabicyclo[3.1.0]hexane-2-carboxamide] | ≥ 1000
CCOC(=O)N[C@@H](CC(C)C)C(=O)N1C[C@H]2C([C@H]1C(=O)N[C@H](C#N)CC1C(=O)Nc3ccccc31)C2(C)C (stereo in doubt) [Compound 246, ethyl N-[(1S)-1-[(1S,2S,5S)-2-[[(1S)-1-cyano-2-(2-oxoindolin-3-yl)ethyl]carbamoyl]-6,6-dimethyl-3-azabicyclo[3.1.0]hexane-3-carbonyl]-3-methyl-butyl]carbamate] | 10 to 50
CC(C)(C)[C@H](NC(=O)C(F)(F)F)C(=O)N1CCC2(CC2)CC1C(=O)N[C@H](C#N)C[C@@H]1CCNC1=O (mixture of isomers) [Compound 206, N—((S)-1-Cyano-2-((S)-2-oxopyrrolidin-3-yl)ethyl)-6-((S)-3,3-dimethyl-2-(2,2,2-trifluoroacetamido)butanoyl)-6-azaspiro[2.5]octane-5-carboxamide] | 10 to 50
CN(C(=O)[C@@H]1C2[C@H](CN1C(=O)[C@@H](NC(=O)C(F)(F)F)C(C)(C)C)C2(C)C)[C@H](C#N)CC1C(=O)Nc2ccccc21 (stereo in doubt) [Compound 231, (1S,2S,5S)-N-[(1S)-1-cyano-2-(2-oxoindolin-3-yl)ethyl]-3-[(2S)-3,3-dimethyl-2-[(2,2,2-trifluoroacetyl)amino]butanoyl]-N,6,6-trimethyl-3-azabicyclo[3.1.0]hexane-2-carboxamide] | 50 to 100
